According to patent US10724099B2, “Multiplex methods to assay mixed cell populations simultaneously” (The Broad Institute, Inc., priority 2012, dated 2020):

Legend:
[1] = target: T1, TGFBR1 (Homo sapiens, UniProt P36897); test: DiscoveRx KinomeScan binding
T1 construct: purchased DiscoveRx scanEDGE panel

[2] = target: T2, PAK1 (Homo sapiens, UniProt Q13153); test: DiscoveRx KinomeScan binding
T2 construct: purchased DiscoveRx scanEDGE panel (KinomeScan)

[3] = target: T3, MEK1 (Homo sapiens, UniProt Q02750); test: DiscoveRx KinomeScan binding; conditions: Entrez MAP2K1
T3 construct: purchased DiscoveRx scanEDGE panel (KinomeScan)

[4] = target: T4, ROCK2 (Homo sapiens, UniProt O75116); test: DiscoveRx KinomeScan binding
T4 construct: purchased DiscoveRx scanEDGE panel

[5] = target: T5, CHEK1 (Homo sapiens, UniProt O14757); test: DiscoveRx KinomeScan binding
T5 construct: purchased DiscoveRx scanEDGE panel

[6] = target: T6, MARK3 (Homo sapiens, UniProt P27448); test: DiscoveRx KinomeScan binding
T6 construct: purchased DiscoveRx scanEDGE panel (KinomeScan)

[7] = target: T7, MAPKAPK2 (Homo sapiens, UniProt P49137); test: DiscoveRx KinomeScan binding
T7 construct: purchased DiscoveRx scanEDGE panel (KinomeScan)

[8] = target: T8, ERK1 (Homo sapiens, UniProt P27361); test: DiscoveRx KinomeScan binding; conditions: Entrez MAPK3
T8 construct: purchased DiscoveRx scanEDGE panel

[9] = target: T9, TYK2(JH1domain---catalytic) (Homo sapiens, UniProt P29597); test: DiscoveRx KinomeScan binding
T9 construct: TYK2(JH1domain---catalytic); purchased DiscoveRx scanEDGE panel

[10] = target: T10, FLT3 (Homo sapiens, UniProt P36888); test: DiscoveRx KinomeScan binding
T10 construct: purchased DiscoveRx scanEDGE panel

[11] = target: T11, CDK11 (Homo sapiens, UniProt Q9BWU1); test: DiscoveRx KinomeScan binding; conditions: Entrez CDK19
T11 construct: purchased DiscoveRx (KINOMEscan scanEDGE panel)

[12] = target: T12, TIE2 (Homo sapiens, UniProt Q02763); test: DiscoveRx KinomeScan binding; conditions: Entrez TEK
T12 construct: purchased DiscoveRx scanEDGE panel

[13] = target: T13, full-length human aurora-C (Homo sapiens, UniProt Q9UQB9); test: In vitro kinase assay (EMD Millipore KinaseProfiler); format: biochemical; conditions: 10 μM γ-33P-ATP, 30 μM AKRRRLSSLRA, 8 doses in duplicate
T13 construct: purchased EMD Millipore KinaseProfiler service
Method: (§1) In vitro kinase inhibition assays were then performed as follows. Incorporation of radioactivity from 10 μM γ-^33P-ATP was measured across 8 doses in duplicate by the EMD Millipore KinaseProfiler service (Billerica, Mass.) under published standard conditions with […]. Full-length human aurora-A was assayed with 200 μM LRRASLG (Kemptide); full-length human aurora-B with 30 μM […] (SEQ ID NO:5); and full-length human aurora-C with 30 μM […] (SEQ ID NO:6). IC50 values were modeled using least-squares and variable slope with Prism 6.0 software (GraphPad, San Diego, Calif.).

[14] = target: T14, full-length human aurora-A (Homo sapiens, UniProt O14965); test: as above; format: biochemical; conditions: 10 μM γ-33P-ATP, 200 μM Kemptide, 8 doses in duplicate
T14 construct: Full-length human aurora-A was assayed; purchased EMD Millipore KinaseProfiler service
Method: as §1

[15] = target: T15, full-length human aurora-B (Homo sapiens, UniProt Q96GD4); test: as above; format: biochemical; conditions: 10 μM γ-33P-ATP, 30 μM AKRRRLSSLRA, 8 doses in duplicate
T15 construct: purchased EMD Millipore KinaseProfiler service
Method: as §1

[16] = target: T16, AKT1 (Homo sapiens, UniProt P31749); test: DiscoveRx KinomeScan binding
T16 construct: purchased DiscoveRx (KINOMEscan scanEDGE panel)

[17] = target: T17, GSK3B (Homo sapiens, UniProt P49841); test: DiscoveRx KinomeScan binding
T17 construct: purchased DiscoveRx scanEDGE panel

[18] = target: T18, DCAMKL1 (Homo sapiens, UniProt O15075); test: DiscoveRx KinomeScan binding; conditions: Entrez DCLK1
T18 construct: purchased DiscoveRx scanEDGE panel

[19] = target: T19, VEGFR2 (Homo sapiens, UniProt P35968); test: DiscoveRx KinomeScan binding; conditions: Entrez KDR
T19 construct: purchased DiscoveRx scanEDGE panel

[20] = target: T20, PIM3 (Homo sapiens, UniProt Q86V86); test: DiscoveRx KinomeScan binding
T20 construct: purchased DiscoveRx scanEDGE panel

[21] = target: T21, AURKB (Homo sapiens, UniProt Q96GD4); test: DiscoveRx KinomeScan binding
T21 construct: purchased DiscoveRx (KINOMEscan scanEDGE panel)

[22] = target: T22, PIK3CA (Homo sapiens, UniProt P42336); test: DiscoveRx KinomeScan binding
T22 construct: purchased DiscoveRx scanEDGE panel

[23] = target: T23, RSK2(Kin.Dom.1---N---terminal) (Homo sapiens, UniProt P51812); test: DiscoveRx KinomeScan binding; conditions: Entrez RPS6KA3
T23 construct: RSK2(Kin.Dom.1---N---terminal); purchased DiscoveRx scanEDGE panel

[24] = target: T24, CDK3 (Homo sapiens, UniProt Q00526); test: DiscoveRx KinomeScan binding
T24 construct: purchased DiscoveRx (KINOMEscan scanEDGE panel)

[25] = target: T25, SRPK3 (Homo sapiens, UniProt Q9UPE1); test: DiscoveRx KinomeScan binding
T25 construct: purchased DiscoveRx scanEDGE panel

[26] = target: T26, DYRK1B (Homo sapiens, UniProt Q9Y463); test: DiscoveRx KinomeScan binding
T26 construct: purchased DiscoveRx scanEDGE panel

[27] = target: T27, TRKA (Homo sapiens, UniProt P04629); test: DiscoveRx KinomeScan binding; conditions: Entrez NTRK1
T27 construct: purchased DiscoveRx scanEDGE panel

[28] = target: T28, ABL1(E255K)---phosphorylated (Homo sapiens, UniProt P00519, E255K); test: DiscoveRx KinomeScan binding; conditions: Entrez ABL1
T28 construct: purchased DiscoveRx (KINOMEscan scanEDGE panel)

[29] = target: T29, PLK3 (Homo sapiens, UniProt Q9H4B4); test: DiscoveRx KinomeScan binding
T29 construct: purchased DiscoveRx scanEDGE panel

[30] = target: T30, ACVR1B (Homo sapiens, UniProt P36896); test: DiscoveRx KinomeScan binding
T30 construct: purchased DiscoveRx (KINOMEscan scanEDGE panel)

[31] = target: T31, PDGFRB (Homo sapiens, UniProt P09619); test: DiscoveRx KinomeScan binding
T31 construct: purchased DiscoveRx scanEDGE panel (KinomeScan)

[32] = target: T32, SRC (Homo sapiens, UniProt P12931); test: DiscoveRx KinomeScan binding
T32 construct: purchased DiscoveRx scanEDGE panel

[33] = target: T33, CDK2 (Homo sapiens, UniProt P24941); test: DiscoveRx KinomeScan binding
T33 construct: purchased DiscoveRx (KINOMEscan scanEDGE panel)

[34] = target: T34, MEK2 (Homo sapiens, UniProt P36507); test: DiscoveRx KinomeScan binding; conditions: Entrez MAP2K2
T34 construct: purchased DiscoveRx scanEDGE panel (KinomeScan)

[35] = target: T35, CSF1R (Homo sapiens, UniProt P07333); test: DiscoveRx KinomeScan binding
T35 construct: purchased DiscoveRx scanEDGE panel

T21 sequence (Q96GD4 whole entry): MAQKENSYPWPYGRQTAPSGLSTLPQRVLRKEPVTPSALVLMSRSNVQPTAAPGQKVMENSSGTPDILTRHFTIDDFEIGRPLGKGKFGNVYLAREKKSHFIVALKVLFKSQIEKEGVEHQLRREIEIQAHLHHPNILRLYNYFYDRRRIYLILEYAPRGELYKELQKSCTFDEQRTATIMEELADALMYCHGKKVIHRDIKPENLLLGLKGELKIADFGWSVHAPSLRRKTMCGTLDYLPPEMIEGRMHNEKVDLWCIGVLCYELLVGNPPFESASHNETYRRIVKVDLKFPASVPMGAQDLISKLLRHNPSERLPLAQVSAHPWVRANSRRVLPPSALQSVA
T32 sequence (P12931 whole entry): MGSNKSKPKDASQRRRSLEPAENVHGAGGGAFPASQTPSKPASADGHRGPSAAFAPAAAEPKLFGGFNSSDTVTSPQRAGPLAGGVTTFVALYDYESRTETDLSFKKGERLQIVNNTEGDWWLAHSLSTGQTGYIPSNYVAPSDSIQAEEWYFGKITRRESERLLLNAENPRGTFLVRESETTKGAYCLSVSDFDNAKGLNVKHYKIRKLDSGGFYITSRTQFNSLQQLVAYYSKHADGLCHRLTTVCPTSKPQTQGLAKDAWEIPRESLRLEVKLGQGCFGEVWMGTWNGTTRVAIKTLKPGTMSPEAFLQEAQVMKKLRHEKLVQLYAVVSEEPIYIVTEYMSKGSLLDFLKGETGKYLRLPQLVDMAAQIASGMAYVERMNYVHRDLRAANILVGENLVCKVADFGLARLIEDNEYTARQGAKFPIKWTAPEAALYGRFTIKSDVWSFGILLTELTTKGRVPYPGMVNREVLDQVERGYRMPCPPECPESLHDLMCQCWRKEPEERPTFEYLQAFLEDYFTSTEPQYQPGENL
T28 sequence (P00519 whole entry E255K): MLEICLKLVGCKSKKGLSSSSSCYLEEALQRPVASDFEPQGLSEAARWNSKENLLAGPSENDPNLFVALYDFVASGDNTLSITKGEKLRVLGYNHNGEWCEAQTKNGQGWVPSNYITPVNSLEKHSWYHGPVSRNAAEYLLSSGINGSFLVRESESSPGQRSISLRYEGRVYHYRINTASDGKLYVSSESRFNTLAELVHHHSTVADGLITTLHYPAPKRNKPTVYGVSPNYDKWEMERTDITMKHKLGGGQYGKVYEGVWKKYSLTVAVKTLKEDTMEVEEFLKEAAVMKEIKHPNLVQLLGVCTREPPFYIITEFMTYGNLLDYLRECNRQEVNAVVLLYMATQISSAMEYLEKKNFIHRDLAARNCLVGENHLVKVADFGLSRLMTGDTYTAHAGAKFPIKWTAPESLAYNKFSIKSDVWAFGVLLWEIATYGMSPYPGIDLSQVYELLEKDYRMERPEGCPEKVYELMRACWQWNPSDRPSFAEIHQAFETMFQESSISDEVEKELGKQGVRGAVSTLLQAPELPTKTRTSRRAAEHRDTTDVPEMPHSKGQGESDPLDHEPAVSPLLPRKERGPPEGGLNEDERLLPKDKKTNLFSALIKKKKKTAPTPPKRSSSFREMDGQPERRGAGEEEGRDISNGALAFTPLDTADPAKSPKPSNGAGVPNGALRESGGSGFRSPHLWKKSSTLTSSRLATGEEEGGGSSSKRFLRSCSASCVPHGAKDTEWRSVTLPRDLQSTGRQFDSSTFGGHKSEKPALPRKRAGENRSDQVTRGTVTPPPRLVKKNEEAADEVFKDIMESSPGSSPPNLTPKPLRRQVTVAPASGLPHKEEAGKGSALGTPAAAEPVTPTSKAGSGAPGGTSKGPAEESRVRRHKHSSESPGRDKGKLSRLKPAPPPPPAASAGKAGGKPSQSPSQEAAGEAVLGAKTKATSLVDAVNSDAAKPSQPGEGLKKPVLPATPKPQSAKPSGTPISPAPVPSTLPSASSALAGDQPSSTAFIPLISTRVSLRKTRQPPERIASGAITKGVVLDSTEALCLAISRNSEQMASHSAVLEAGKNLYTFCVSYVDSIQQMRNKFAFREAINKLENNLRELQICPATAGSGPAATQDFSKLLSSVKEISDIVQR
T30 sequence (P36896 24-505): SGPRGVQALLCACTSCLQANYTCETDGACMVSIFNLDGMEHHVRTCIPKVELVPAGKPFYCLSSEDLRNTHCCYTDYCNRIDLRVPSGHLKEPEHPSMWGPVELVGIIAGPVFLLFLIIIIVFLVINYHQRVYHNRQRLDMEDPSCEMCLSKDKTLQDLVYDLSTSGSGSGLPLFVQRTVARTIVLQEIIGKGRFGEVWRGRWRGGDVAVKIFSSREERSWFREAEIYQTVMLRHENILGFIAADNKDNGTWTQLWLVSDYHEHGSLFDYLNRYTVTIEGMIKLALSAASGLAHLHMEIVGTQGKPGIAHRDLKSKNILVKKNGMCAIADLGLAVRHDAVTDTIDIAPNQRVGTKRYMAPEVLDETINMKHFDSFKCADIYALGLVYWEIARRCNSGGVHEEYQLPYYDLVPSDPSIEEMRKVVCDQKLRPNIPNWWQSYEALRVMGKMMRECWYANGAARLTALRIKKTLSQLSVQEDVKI
T34 sequence (P36507 whole entry): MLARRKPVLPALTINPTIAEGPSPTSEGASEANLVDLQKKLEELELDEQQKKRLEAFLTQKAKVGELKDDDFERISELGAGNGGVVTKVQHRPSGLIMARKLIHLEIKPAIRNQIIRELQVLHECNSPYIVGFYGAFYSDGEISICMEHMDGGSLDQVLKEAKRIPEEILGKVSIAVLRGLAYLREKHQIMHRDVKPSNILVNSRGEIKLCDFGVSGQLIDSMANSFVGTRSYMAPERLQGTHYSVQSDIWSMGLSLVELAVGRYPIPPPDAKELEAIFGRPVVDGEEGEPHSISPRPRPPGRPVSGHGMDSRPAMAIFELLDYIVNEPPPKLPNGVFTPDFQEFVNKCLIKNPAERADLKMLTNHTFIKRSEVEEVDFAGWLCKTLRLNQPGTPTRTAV
T5 sequence (O14757 whole entry): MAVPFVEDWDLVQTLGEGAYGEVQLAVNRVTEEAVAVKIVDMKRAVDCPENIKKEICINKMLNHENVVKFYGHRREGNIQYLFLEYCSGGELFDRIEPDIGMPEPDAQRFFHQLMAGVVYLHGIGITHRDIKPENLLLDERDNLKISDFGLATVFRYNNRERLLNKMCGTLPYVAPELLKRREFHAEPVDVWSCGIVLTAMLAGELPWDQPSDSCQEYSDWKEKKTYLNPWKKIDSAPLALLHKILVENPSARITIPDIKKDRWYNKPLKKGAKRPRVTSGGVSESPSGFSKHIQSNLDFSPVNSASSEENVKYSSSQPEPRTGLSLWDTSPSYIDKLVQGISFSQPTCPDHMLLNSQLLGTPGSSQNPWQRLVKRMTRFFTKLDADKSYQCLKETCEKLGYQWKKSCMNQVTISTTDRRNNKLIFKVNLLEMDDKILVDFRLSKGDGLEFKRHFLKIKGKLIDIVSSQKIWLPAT
T10 sequence (P36888 27-993): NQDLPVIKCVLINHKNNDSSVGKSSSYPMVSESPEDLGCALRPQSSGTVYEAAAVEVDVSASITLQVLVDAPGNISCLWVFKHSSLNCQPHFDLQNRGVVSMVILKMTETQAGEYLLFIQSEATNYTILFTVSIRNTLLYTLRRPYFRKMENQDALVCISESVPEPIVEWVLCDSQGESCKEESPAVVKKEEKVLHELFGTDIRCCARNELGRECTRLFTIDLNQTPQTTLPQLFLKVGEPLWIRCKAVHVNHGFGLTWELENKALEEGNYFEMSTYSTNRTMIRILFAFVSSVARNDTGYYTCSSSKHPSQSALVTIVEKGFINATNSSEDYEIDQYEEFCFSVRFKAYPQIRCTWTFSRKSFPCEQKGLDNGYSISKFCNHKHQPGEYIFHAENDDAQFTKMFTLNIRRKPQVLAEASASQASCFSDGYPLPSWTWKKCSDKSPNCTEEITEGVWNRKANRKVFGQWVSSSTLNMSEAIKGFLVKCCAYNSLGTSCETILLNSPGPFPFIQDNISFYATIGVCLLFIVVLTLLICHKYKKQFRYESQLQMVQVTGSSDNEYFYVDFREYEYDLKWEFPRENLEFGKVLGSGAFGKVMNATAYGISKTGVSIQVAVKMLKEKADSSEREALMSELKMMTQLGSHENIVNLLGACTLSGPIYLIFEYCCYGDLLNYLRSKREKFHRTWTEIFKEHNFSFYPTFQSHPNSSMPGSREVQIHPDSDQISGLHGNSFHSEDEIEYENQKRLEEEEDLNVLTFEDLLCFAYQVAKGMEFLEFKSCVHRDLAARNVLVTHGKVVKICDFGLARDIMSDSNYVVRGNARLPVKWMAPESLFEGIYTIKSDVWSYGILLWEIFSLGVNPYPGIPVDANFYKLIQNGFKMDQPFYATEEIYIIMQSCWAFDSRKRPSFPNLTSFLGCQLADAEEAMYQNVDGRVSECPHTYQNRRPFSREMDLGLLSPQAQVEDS
T17 sequence (P49841 whole entry): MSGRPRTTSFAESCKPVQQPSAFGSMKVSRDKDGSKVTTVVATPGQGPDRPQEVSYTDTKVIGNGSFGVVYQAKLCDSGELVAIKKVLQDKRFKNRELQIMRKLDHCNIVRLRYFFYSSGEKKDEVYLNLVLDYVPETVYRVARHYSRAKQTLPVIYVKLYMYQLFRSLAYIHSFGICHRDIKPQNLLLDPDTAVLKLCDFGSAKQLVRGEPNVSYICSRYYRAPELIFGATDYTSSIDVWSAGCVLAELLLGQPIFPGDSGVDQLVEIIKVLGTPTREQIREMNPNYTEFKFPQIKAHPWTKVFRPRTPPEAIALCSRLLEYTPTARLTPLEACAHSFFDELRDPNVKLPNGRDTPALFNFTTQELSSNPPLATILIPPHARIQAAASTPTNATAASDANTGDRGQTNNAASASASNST
T15 sequence (Q96GD4 whole entry): as the sequence (Q96GD4 whole entry) above

SMILES: COc1ccc(NC(=O)Nc2ccc3c(c2)C(=O)N([C@@H](C)CO)C[C@H](C)[C@H](CN(C)Cc2ccc4c(c2)OCO4)O3)cc1 [BRD-7880]
- Percent Control [1]: 100%
- Percent Control [2]: 77%
- Percent Control [3]: 71%
- Percent Control [4]: 100%
- Percent Control [5]: 100%
- Percent Control [6]: 100%
- Percent Control [7]: 80%
- Percent Control [8]: 92%
- Percent Control [9]: 87%
- Percent Control [10]: 65%
- Percent Control [11]: 43%
- Percent Control [12]: 97%
- IC50 [13]: 12 nM
- IC50 [14]: 2150 nM
- IC50 [15]: 7 nM
- Percent Control [16]: 87%
- Percent Control [17]: 94%
- Percent Control [18]: 37%
- Percent Control [19]: 100%
- Percent Control [20]: 72%
- binding to aurora kinase B [21]: 0.5 % of control
- Percent Control ([21]; AURKB): 0.5%
- Percent Control [22]: 74%
- Percent Control [23]: 80%
- Percent Control [24]: 76%
- Percent Control [25]: 100%
- Percent Control [26]: 55%
- Percent Control [27]: 84%
- Percent Control [28]: 80%
- Percent Control [29]: 48%
- Percent Control [30]: 84%
- Percent Control [31]: 100%
- Percent Control [32]: 81%
- Percent Control [33]: 100%
- Percent Control [34]: 73%
- Percent Control [35]: 100%
